Reference: patent US20180271809A1, “USE OF NICLOSAMIDE IN THE TREATMENT OF P53-DEFICIENT CELLS” (AGENCY FOR SCIENCE, TECHNOLOGY AND RESEARCH, priority 2015, published 2018)

Legend:
[1] = test system: p53 null and p53 mutant cancer cells; assay: Apoptotic cell death assays in p53 null and p53 mutant cancer cell lines; type: cell-based; conditions: data not shown
Method: To this end, various cancer cell lines/types were seeded according to their growth rate to be confluent at the same time. These cell lines were each treated with differing niclosamide concentrations for 48 hours. The cells were then allowed to recover in their respective media for 6 days, after which apoptotic cell death assays were performed. The resulting percentage of apoptotic cells in each sample were plotted on a 3D graph (data not shown).

[2] = test system: Mouse embryonic stem cells harbouring a p53K0 mutation; assay: Teratoma growth in nude mice from mouse embryonic stem cells pre-treated with niclosamide; type: in vivo; conditions: mES cells treated with 2 μM for 48 hours before injection into nude mice; tumours observed after 24 days / 3 weeks
Method: Mouse embryonic stem cells harbouring a p53K0 mutation were either treated with DMSO or treated with niclosamide at a concentration of 2 μM for 48 hours. The resulting trypsinised cells were then resuspended in Phosphate buffer Saline. The cells were counted and resuspended to result in a final cell concentration of 1×10^6 cells/100 μl. Immediately after counting, the cells were transferred to animal facility for nude mice injection. 100 μl of DMSO treated cells were injected into the right inguinal region, while 100 μl niclosamide treated cells were injected into the left inguinal region of each mouse. After 24 days of the injection, tumour growth was observed. The resulting teratomas were surgically removed analysed to observe the ability of niclosamide to inhibit tumour growth. […] Therefore, an in vivo tumour model in nude mice was utilised. As a control, mouse embryonic stem (mES) cells were injected into nude mice and the mice monitored for the presence of tumour growth (teratomas). mES cells treated with niclosamide or DMSO treated control cells were injected into nude mice and tumour growth monitored after 3 weeks.

HCT116 p53^−/− cells [3] = assay: Colony forming assay (crystal violet) in isogenic HCT116 cell lines; type: cell-based; conditions: 0.5-3 μM, 48 hours of drug treatment, recovery
Caspase-3 = Caspase-3 immunoblot of niclosamide-treated HCT116 cells; type: cell-based; conditions: HCT116 wild type p53 versus p53 deficient
Method: Like human fibroblast cells, these cells were also tested for apoptotic cell death, the data of which is shown in the graphs shown in FIG. 4B). […] Both HCT116 cells with wild type p53 and those which were p53 deficient were treated with niclosamide, and protein samples were immunoblotted with Caspase-3 antibody.

HCT116 p53^−/− cells [4] = assay: Co-culture cell viability / competition assay of H2B-GFP HCT116 p53+/+ and H2B-RFP HCT116 p53−/− cells; type: cell-based
[5] = test system: Human skin fibroblast cells (TOBA cells); assay: Cell viability (light microscopy) and Annexin V apoptosis assay in p53-depleted human skin fibroblast cells; type: cell-based
Method: Human skin fibroblast cells (TOBA cells) were infected either with a control shRNA lentivirus or a p53-targeting shRNA virus (as described in the preceding section). After generation of a stable p53-knockdown (using puro selection), cells were analysed for cell viability in response to different doses of niclosamide. Briefly, wild type Toba cells, and p53 depleted cells were plated at 20,000 cell density in 6 well plates. Next day, cells were either DMSO treated or treated with varying doses of niclosamide. After 48 hours of drug incubation, the drug containing media was replaced with new cell culture medium to start recovery. After 8 days of recovery, the cells were imaged in light microscope at 10× objective lens.
As described above, DMSO and niclosamide-treated cells were analysed for the presence of apoptotic cell death by Annexin V staining. All cells in a well, including both rounded floating (that is, dead or dying cells) and adherent cells (that is, live cells) were collected carefully by trypsinisation and centrifuged at 400 g for 5 minutes. The pellet was resuspended in 200 μl of incubation buffer and after re-suspension, centrifuged at same speed as above to collect the washed sample pellets. […]

[6] = test system: ovarian tumour samples derived from patient biopsy samples; assay: Patient-derived ovarian tumour xenograft mouse model; type: in vivo; conditions: 150 mg/kg once, intravenously; 30 days post treatment
Method: Experiments were also performed using a patient-derived xenograft mouse model. In these experiments, ovarian tumour samples derived from patient biopsy samples were implanted into either the left or right flank of the mouse. These tumours were allowed to establish in the mouse and the tumour volume was measured according to standard practice every 2 days post implantation. After reaching a minimum threshold size of about 200 mm^3, the mice were treated once, intravenously, with niclosamide at a concentration of 150 mg/kg. The change in tumour volume was measured for further 30 days post treatment.

[7] = test system: p53-deficient HCT116 spheroid; assay: 3D spheroid growth of co-cultured HCT116 p53+/+ and p53−/− cells; type: cell-based; conditions: 48 hours drug incubation, 6 more days culture
Method: H2B-GFP- HCT116p53^+/+ and H2B-RFP-p53^−/− cells were grown as co-culture in a ultralow attachment 96-well cell culture plates to promote the spheroid formation. Briefly, to generate 3D multicellular spheroids, H2B-GFP expressing wild type (WT) p53 cells and H2B-RFP expressing p53-negative cells were each seeded at 250 cells per 100 ∥l culture media into 96-well round-bottomed plate and spun down (1000 g, 5 min). The seeded cells were cultured for two days in 5% CO2 humidified atmosphere at 37° C. On third day, cells were either DMSO treated or treated with different doses of niclosamide. After 48 hours of drug incubation, spheroids were diluted to non-toxic concentrations via media exchange. Treated spheroids were then further cultured for 6 more days. Spheroids were imaged in Incell analyser 2000 with FITC and Texas-Red channels.

[8] = test system: mouse embryonic fibroblast (MEF) cells harbouring p53 mutations (+/R172 or R172/R172); assay: Niclosamide sensitivity of mouse embryonic fibroblast (MEF) cells with wild type or mutant p53; type: cell-based; conditions: p53 +/R172 or R172/R172 versus wild type

With `O=C(Nc1ccc([N+](=O)[O-])cc1Cl)c1cc(Cl)ccc1O` [niclosamide, 2′,5-dichloro-4′-nitrosalicylanilide] the “susceptibility (apoptotic cells) of p53 null and p53 mutant cancer cells” value ([1]; 48 hours treatment, 6 days recovery) was “strongly susceptible to treatment with niclosamide in a dose dependent manner”, the “cell viability of the remaining (surviving) cells” value ([1]; certain cell lines) was “differentially reduced cell viability of the remaining cells in certain cell lines” and the “size of the teratomas versus DMSO control” value [2] was “significant reduction in the size of the teratomas”. For the same compound, the “cell viability, HCT116 p53−/− versus HCT116 p53 wildtype (colony formation assay)” value (HCT116 p53^−/− cells [3]) was “decrease in the viability of HCT116 p53^−/− cells to a greater extent than the HCT116 p53 wildtype cells”, the “induction of cleaved caspase in p53 deficient HCT116 cells (western blot)” value (Caspase-3) was “clear induction of the cleaved caspase in p53 minus” and the “cell viability, HCT116 p53−/− versus HCT116 p53 wildtype (cell viability assay)” value (HCT116 p53^−/− cells [4]; after 48 hours of drug treatment, compared with DMSO controls) was “decrease in the viability of HCT116 p53^−/− cells to a greater extent than the HCT116 p53 wildtype cells”. For the same compound, the “selective targeting in chemical biology screen (relative percentages of GFP and RFP cells)” value (HCT116 p53^−/− cells [4]; co-culture, 48 hours treatment, 7 days recovery in drug free media) was “selectively targeting HCT116 p53^−/− cells”, the “apoptosis (Annexin V) in p53-deficient versus wildtype human fibroblasts” value ([5]; 1-4 μM, 48 hours, then recovery, flow cytometry) was “greater extent of apoptosis in p53-deficient human fibroblasts” and the “sensitivity / killing of p53-deficient human fibroblast cells (FIG. 3 taken together)” value ([5]; shp53 versus shcontrol cells) was “preferential killing of p53 deficient cells”. The “tumour growth (tumour volume) versus PBS control” value [6] was “reduction in tumour growth”, the “3D spheroid growth, p53-deficient versus wildtype HCT116” value [7] was “greater reduction of 3D p53-deficient HCT116 spheroid growth compared to wildtype spheroid” and the “niclosamide sensitivity of p53 mutant MEF cells (bright field, crystal violet)” value [8] was “p53 mutant MEF cells are sensitive to niclosamide”.
